Reference: patent US6989162B2, “Hepatoprotective agent of plant origin and a process thereof” (Council of Scientific & Industrial Research, priority 2003, dated 2006)

Tested on: CCl4 induced hepatic injury
Experiment: Hepatoprotective potential against CCl4 induced hepatic injury in rodents (prophylactic)
Assay type: in vivo, Rodents (Albino rats, Wistar; Albino mice, Swiss)
Conditions: 100 mg/kg p.o. + CCl4
From the text: The compound has been bioevaluated for hepatoprotective/antihepatotoxic activity by using a comprehensive study design annexed herewith as Annexure-2. The parameters studied during the bioevaluation to establish the bioefficacy and optimum dose were preferred using the kits (Clonital, Italy and Accurex Biomedical Pvt. Ltd Thane). The list of the parameters is given in Annexure-2 appended herewith. The dose response graphs with respect to different parameters in comparison with the standard drug with silymarin and glycyrrhizin are given in Annexure-3 appended herewith.
Hepatoprotective activity (H) was calculated by the following equation: H=[1−(TC−V/VC−V)]×100
Where TC, VC, and V are drug+toxin, vehicle+toxin and vehicle treated groups of animals respectively.

[1] = hepatic, mean ± SE, six animals

In the case of CC1(C)[C@@H](O[C@H]2O[C@H](C(=O)O)[C@@H](O)[C@H](O)[C@H]2O[C@@H]2O[C@H](C(=O)O)[C@@H](O)[C@H](O)[C@H]2O)CC[C@]2(C)[C@H]3C(=O)C=C4[C@@H]5C[C@@](C)(C(=O)O)CC[C@]5(C)CC[C@@]4(C)[C@]3(C)CC[C@@H]12 [Glycyrrhizin, reference compound], the “% protection, GSH” value (hepatic) is reported as “(53.55) %”, the “% protection, LP” value (hepatic) is reported as “(56.08) %” and the “GSH (glutathione)” value [1] is reported as 5.96 ± 0.26 μ mole GSH/g liver. For the same compound, the “LP (lipid peroxidation)” value [1] was 54.37 ± 4.82 n mole MDA/g liver, the “% protection, ALP” value (serum) was “(46.48) %” and the “% protection, Albumin” value (serum) was “(38.57) %”. The “% protection, Bilirubin” value (serum) was “(42.85) %”, the “% protection, GOT” value (serum) was “(56.44) %” and the “% protection, GPT” value (serum) was “(53.87) %”. For the same compound, the “% protection, TG” value (serum) was “(42.07) %”, the ALP (serum, mean ± SE, six animals) was 55.63 ± 3.52 μ mole of p-nitrophenol formed/min/L and the Albumin (serum, mean ± SE, six animals) was 3.30 ± 0.12 g %. The Bilirubin (serum, mean ± SE, six animals) was 0.55 ± 0.04 mg %, the GOT (serum, mean ± SE, six animals) was 494.27 ± 36.28 Units (μ mole pyruvate/min/L) and the GPT (serum, mean ± SE, six animals) was 746.87 ± 49.77 Units (μ mole pyruvate/min/L). The TG (serum, mean ± SE, six animals) was 65.31 ± 3.69 mg %.
